The source of these data is patent US20030219451A1, “Stable helical C peptides and uses therefor” (priority 2001, published 2003).

The target of data set [1] is HIV-1 gp41 envelope glycoprotein (HXB2 envelope) (HIV-1 (HXB2)) (UniProt P04578). In words: cell-based or functional assay.
Data set [2] relates to recombinant luciferase-expressing HIV-1 infecting HOS-CD4/Fusin cells. Conditions: C34 data taken from Chan et al., PNAS 95:15613 (1998); read-out: Viral Infectivity Assay (IC50 in nM); cited from earlier work.
Data set [3] concerns HIV-1 envelope mediated fusion of CHO gp160 cells with CD4 HeLa cells. Particulars: C34 data taken from Chan et al., PNAS 95:15613 (1998); read-out: Cell-Cell Fusion Assay (IC50 in nM); cited from earlier work.
The nature of data set [4]: Circular dichroism spectroscopy. The class given is physicochemical. Particulars: PBS, pH 7.0, 25° C., C34-GCN4 with about 0.7 M guanidine hydrochloride.
Protocol: The guanidine hydrochloride used to solubilize C34-GCN4 absorbs light at wavelengths below 210 nm. Experimental conditions were PBS, pH 7.0, 25° C.
CD spectra were measured on an Aviv 60DS spectrapolarimeter at 25° C. in phosphate buffered saline (PBS; 10 mM sodium phosphate, 150 mM NaCl, pH 7.0). […] Guanidine concentrations were measured by refractometry.
Data set [5] has as its system HIV-1 envelope mediated fusion of CHO gp160 cells with CD4 HeLa cells. As for the experimental part:
The peptides were tested for inhibiting the fusion of HIV-1 Env expressing cells (CHO gp 160) with CD4expressing cells (CD4 HeLa) (D. C. Chan, et al., Proc. Natl. Acad. Sci., 95:15613-15617 (1998)).
(§1) Assessment of viral infectivity and syncytia formation were carried out as described by Eckert et al., Cell, 99:103-115 (1999). In both inhibition assays, peptide stocks were dissolved in dimethylsulfoxide and their concentrations determined by absorbance in guanidine at 280 nm. The final concentration of dimethylsulfoxide in tissue culture media was 1% in all experiments. Inhibition of cell-cell fusion (syncytia formation) (G. J. Nabel, Nature 410, 1002-1007 (2001); D. C. Chan, C. T. Chutkowski, P. S. Kim, Proc. Natl. Acad. Sci. 95, 15613-15617 (1998)) was assayed by co-culturing 3×10^4 Chinese hamster ovary (CHO) cells expressing HXB2 envelope and tat and rev with 5×10^4 HeLa cells expressing CD4 and LTR-driven β-galactosidase in the presence of varying concentrations of peptides. The CHO and HeLa cells were incubated in the presence of peptides for 20 hours, and stained with 5-bromo-4-chloro-3-indolyl-β-D-galactoside (X-gal) to detect the syncytia, which were visualized by microscopy and counted manually. In the viral infectivity assay, the ability of the peptides to inhibit HIV-1 infection was assayed using a recombinant luciferase-encoding HIV-1 (G. J. Nabel, Nature 410, 1002-1007 (2001); D. C. Chan, C. T. Chutkowski, P. S. Kim, Proc. Natl. Acad. Sci. 95, 15613-15617 (1998)). 293T cells were co-transfected with an envelope-deficient HIV-1 genome with a luciferase gene (NL43LucR-E-) [B. K. Chen, K. Saksela, R. Andino, D. Baltimore, J. Virol. 68, 654-660 (1994)] and the HXB2 gp160 expression vector (pCMVHXB2 gpl60). Low-speed centrifugation was used to clear the viral supernatants of cellular debris. The supernatant containing the viruses was used to infect HOS cells expressing CD4 and CXCR4 (HOS-CD4/Fusin cells, N. Landau, National Institutes of Health AIDS Reagent Program) in the presence of varying concentrations of peptides. The HOS cells were harvested 48 hours post-infection, and luciferase activity was monitored using a Wallac AutoLumat LB953 luminometer. In both assays, the IC50, the concentration needed to inhibit 50% of cell-cell fusion events or luciferase activity, was calculated from fitting the data to the equation, y=k/(1+[peptide]/IC50), where y=number of syncytia or luciferase activity and k is a scaling constant.
To test how well the HIV-1-neutralizing epitope was recapitulated, two assays were used to measure the potency of the designed peptides in inhibiting HIV-1 envelope-mediated membrane fusion. The biological activity of the designed peptides were first measured by their ability to inhibit fusion of HeLa cells expressing CD4 and chemokine receptors and CHO expressing HIV envelope protein (D. C. Chan, C. T. Chutkowski, P. S. Kim, Proc. Natl. Acad. Sci. 95: 15613-15617 (1998)).

The subject of data set [6] is recombinant luciferase-expressing HIV-1 infecting HOS-CD4/Fusin cells. As for the experimental part: The peptides were tested for inhibition of CD4 positive target cells (HOST4) by recombinant, luciferase-expressing HIV-1 (D. C. Chan, C. T. Chutkowski, P. S. Kim, Proc. Natl. Acad. Sci. 95, 15613-15617 (1998)).
as §1
In a second assay, the ability of the peptides to inhibit HIV infection of HOS cells expressing CD4 and CXCR4 was measured, using a luciferase-based reporter assay (D. C. Chan, C. T. Chutkowski, P. S. Kim, Proc. Natl. Acad. Sci. 95: 15613-15617 (1998); Chen, B. K., et al.,J. Virol., 68(2):[…] (1994)).

For data set [7] the following is noted: 10 μM; Gonzalez et al. 1996; cited from earlier work.

pIC50: −log10 of the molar value. Several values for one entry are separate records, joined by “and”; a condition that tells them apart may be missing. Equal values may be shown once. Read-outs that look alike come from different tables or passages of the source. Some results are limits rather than exact numbers.

With GCN4 homodimer, in data set [1], the inhibition of cell-cell fusion is > 50 µM and the inhibition of viral infectivity is > 50 µM.

In the case of C34-GCN4 peptide (designed binder), in data set [1], the Cell-Cell Fusion Assay (IC50 in nM) was 5 nM; the Viral Infectivity Assay (IC50 in nM) amounted to 16 nM; the inhibition of cell-cell fusion, IC50 is 4.6 nM; the inhibition of viral infectivity, IC50 was determined as 19 nM.

For “C34: linear C-peptide of HIV-1 gp41 (SEQ ID NO: 2), unstructured in solution [Peptide C34]”, the IC50 was 2.1 nM in data set [2] and 0.6 nM in data set [3]. The “[Θ]222 value” in data set [4] was −3,800 deg cm^2 dmol^−1.

With “Ac-WRMWDLEIKVYTLLIKNLILESEVQQLKNLVELR-NH2 (C-terminus assumed) [Peptide C34-GCN4]”, the solubility was < 1 µM. Also, the “inhibition of cell-cell fusion, in words” value in data set [5] is listed as “strong inhibitory potency”. Moreover, the IC50 in data set [5] (read-out: Cell-Cell Fusion Assay (IC50 in nM), CHO cells expressing HXB2 envelope co-cultured with CD4 HeLa cells, 20 hours, 1% DMSO) was 4.6 nM and 5 nM. Also, the IC50 in data set [6] (read-out: Viral Infectivity Assay (IC50 in nM), HOS cells expressing CD4 and CXCR4, luciferase 48 hours post-infection, 1% DMSO) was 16 nM. Moreover, the “[Θ]222 value” in data set [4] (listed as C34-GCN4 peptide) is −12,400 deg cm^2 dmol^−1 and −12,000 deg cm^2 dmol^−1.

With “GCN4 homodimer: covalent homodimer of CGG-GCN4”, the “inhibition of cell-cell fusion, in words” value in data set [5] is given as “no activity”. For the same substance, the “Cell-Cell Fusion Assay (IC50 in nM)” value in data set [5] (CHO cells expressing HXB2 envelope co-cultured with CD4 HeLa cells, 20 hours, 1% DMSO) was “none”. For the same substance, the pIC50 in data set [5] (read-out: no inhibitory activity in cell-cell fusion up to stated concentration, highest concentration without measurable inhibition) is < 4.30; in data set [6] (read-out: no inhibitory activity in viral infectivity up to stated concentration, highest concentration without measurable inhibition), < 4.30. In data set [7], the “transition midpoint under temperature denaturation” value was “over 100 °C”. Further, in data set [6], the “inhibition of viral infectivity, in words” value is “no activity”. In addition, in data set [6] (HOS cells expressing CD4 and CXCR4, luciferase 48 hours post-infection, 1% DMSO), the “Viral Infectivity Assay (IC50 in nM)” value is on record as “none”.
